The values below come from patent publication US6165984A, “Naringin and naringenin as inhibitors of acyl CoA-cholesterol-o-acyltransferase” (Korea Institute of Science & Technology, priority 1997, dated 2000).

For one data set, the system named is ICR mice. Description: Acute oral toxicity of naringin or naringenin in mice. It counts as in vivo, mouse. Particulars: for toxicity or mitogenicity: tests using mice. The protocol:
7 to 8 week-old, specific pathogen-free ICR female mice (6 heads) each weighing about 25 to 29 g and male mice (6 heads) each weighing about 34 to 38 g were bred under a condition of temperature 22±1° C., moisture 55±5% and photoperiod 12L/12D. Fodder (Cheiljedang Co., mouse and rat fodder) and water were sterilized and fed to the mice.
Naringin or naringenin was dissolved in 0.5% Tween 80 to a concentration of 100 mg/ml, and the solution was orally administered to the mice in an amount of 0.2 ml per 20 g of mouse body weight. […] The weight changes of the mice were recorded every day to examine the effect of naringin or naringenin. Further, on the 10th day, the mice were sacrificed and the internal organs were visually examined.

Data set [1] relates to acyl CoA-cholesterol-o-acyltransferase (ACAT). Description: ACAT activity in liver microsomes of naringin- or naringenin-fed rats (Example 5). In kind it is in vivo, Sprague-Dawley rat. Particulars: liver microsomes of rats fed 0.1% compound in 1% cholesterol diet; for ACAT activity: control 806.2 ± 105.2; for % Inhibition on ACAT activity: vs control group. The text has this: 30 four-week-old Sprague-Dawley rats (Taihan laboratory animal center, Korea) each weighing about 90 to 110 g were evenly divided into three dietary groups by a randomized block design. The rats of the three groups were fed with three different high-cholesterol diets, i.e., AIN-76 laboratory animal diet (ICN Biochemicals, Cleveland, Ohio, U.S.A.) containing 1% cholesterol (Control group), and 1% cholesterol plus 0.1% naringin or naringenin, respectively.
To determine the effects of naringin and naringenin feeding to rats on the activity of ACAT, microsomes were separated from the liver tissue to be used as an enzyme source.
First, the rats of the three groups prepared in Example 3 were sacrificed by decapitation and the livers were excised. 1 g each of the livers was homogenized in 5 ml of homogenization medium (0.1 M KH2 PO4, pH 7.4, 0.1 mM EDTA and 10 mM β-mercaptoethanol). The homogenate was centrifuged at 3,000×g for 10 min. at 4° C. and the supernatant thus obtained was centrifuged at 15,000×g for 15 min. at 4° C. to obtain a supernatant. The supernatant was put into an ultracentrifuge tube (Beckman) and centrifuged at 100,000×g for 1 hour at 4° C. to obtain microsomal pellets, which were then suspended in 3 ml of the homogenization medium and centrifuged at 100,000×g for 1 hour at 4° C. The pellets thus obtained were suspended in 1 ml of the homogenization medium. The concentration of proteins in the resulting suspension was determined by Lowry's method and then adjusted to 4 to 8 mg/ml. The resulting suspension was stored in a deep freezer (Biofreezer, Forma Scientific Inc.).
6.67 μl of 1 mg/ml cholesterol solution in acetone was mixed with 6 μl of 10% Triton WR-1339(Sigma Co.) in acetone and, then, acetone was removed from the mixture by evaporation using nitrogen gas. Distilled water was added to the resulting mixture in an amount to adjust the concentration of cholesterol to […].
To 10 μl of the resulting aqueous cholesterol solution were added 10 μl of 1 M KH2 PO4 (pH 7.4), 5 μl of 0.6 mM bovine serum albumin (BSA), 10 μl of microsome solution obtained in (Step 1) and 55 μl of distilled water (total 90 μl). The mixture was pre-incubated in a waterbath at 37° C. for 30 min.
10 μl of (1-^14 C) oleoyl-CoA solution (0.05 μCi, final concentration: 10 μM) was added to the pre-incubated mixture and the resulting mixture was incubated in a waterbath at 37° C. for 30 min. […]
200 μl of the resulting supernatant was put in a scintillation bottle and 4 ml of scintillation fluid (Lumac) was added thereto. The mixture was assayed for radioactivity with 1450 Microbeta liquid scintillation counter (Wallacoy, Finland). ACAT activity was calculated as picomoles of cholesteryl oleate synthesized per min. per mg protein (pmoles/min/mg protein).
In general terms: Microsomes from liver hold many membrane-bound enzymes, among them those of drug oxidation.

For a further data set, the system named is hepatic cells. Particulars: rabbits, six weeks. The protocol:
The same procedure as in (Step 1) was repeated except that 30 three-month old New Zealand White rabbits (Yeonam Horticulture and Animal Husbandry College, Korea) each weighing about 2.5 to 2.6 kg were used in place of the rats, and the rabbits were fed for six weeks with three different diets, i.e., RC4 diet containing 1% cholesterol (Control group); 1% cholesterol plus 1 mg/kg Lovastatin® (Comparative group); and 1% cholesterol plus 0.1% naringin, respectively.
Thereafter, the livers were separated from the rabbits and the histopathological observations were carried out as follows.
The rabbits were anesthetized with an intramuscular injection of ketamine (75 mg/kg) and subjected to an abdominal incision. […] The fixed liver was washed sufficiently with water, dehydrated stepwise with 70%, 80%, 90% and 100% ethanol and, then, embedded in paraffin. The embedded liver was sectioned in 4 μm thickness with a microtome and stained with hematoxylin and eosin. The stained liver specimen was made transparent with xylene, mounted with permount, and then observed under a microscope to confirm the presence of lesions.

Data set [2] is described as follows: Serum GOT, GPT and γGTP in a person (Example 7, Step 4). In kind it is in vivo. Particulars: human, oral, 10 mg/kg daily. As to the method:
Naringin was orally administered to a person at a daily dose of 10 mg/kg for 68 days and serum GOT, GPT and γGTP levels were determined just before the administration (day 0), and 45 and 68 days after the administration (day 45 and day 68), respectively. Consequently, serum GOT levels at day 45 and day 68 decreased by 17%, respectively, in comparison to that of day 0. Serum GPT levels at day 45 and day 68 decreased by 15% and 19%, respectively, in comparison to that of day 0. Further, serum γGTP levels at day 45 and day 68 decreased by 25% and 51%, respectively, in comparison to that of day 0.

[3] abbreviates: single oral dose, 1,000 mg/kg, mice.

Regarding `O=C1C[C@@H](c2ccc(O)cc2)Oc2cc(O)cc(O)c21` [naringenin], the “survival at day 10” value in the data set on ICR mice (setting [3]) is “All the mice were alive”. Further, the weight loss entry in the data set with ICR mice (single oral dose, 1,000 mg/kg, mice, 10 day test period) is given as “no weight loss”. Also, the toxicity result in the data set on ICR mice (single oral dose, 1,000 mg/kg, mice, 10 days) was “no toxicity”. For the same molecule, in the data set with ICR mice (single oral dose, 1,000 mg/kg, mice, day 10), the “pathological abnormality at autopsy” value was “did not develop any pathological abnormality”. Moreover, in the data set with ICR mice, the toxicity or mitogenicity result was “little toxicity or mitogenicity”. In data set [1], the ACAT activity is 666.3 ± 65.3 pmole/min/mg protein and the “% Inhibition on ACAT activity” value amounted to 17.4%.
As for `C[C@@H]1O[C@@H](O[C@H]2[C@H](Oc3cc(O)c4c(c3)O[C@H](c3ccc(O)cc3)CC4=O)O[C@H](CO)[C@@H](O)[C@@H]2O)[C@H](O)[C@H](O)[C@H]1O` [naringin, Naringin], in the data set with ICR mice (mouse, in vivo), the “corresponding oral administration dose for a person weighing 50 kg” value is given as 50-100 g/kg body weight. The “survival at day 10” value in the data set with ICR mice (setting [3]) is given as “All the mice were alive”. Besides, the toxicity or mitogenicity result in the data set with ICR mice is listed as “little toxicity or mitogenicity”. In data set [1], the ACAT activity came to 643.5 ± 80.7 pmole/min/mg protein and the “% Inhibition on ACAT activity” value turned out to be 20.2%. For the same molecule, the “occurrence of fatty liver” value in the data set with hepatic cells (1% cholesterol diet plus 0.1% naringin) is “strongly inhibits the occurrence of fatty liver”. In the data set on hepatic cells (1% cholesterol diet, 1 mg/kg Lovastatin, 0.1% naringin), the “microscopic features of the liver (FIGS. 2A-2C)” value was “normal and the deposition of fat is not observed”. In data set [2] (day 45), the “decrease of serum GOT level, day 45 vs day 0” value is 17%; the “decrease of serum GPT level, day 45 vs day 0” value turned out to be 15%; the “decrease of serum γGTP level, day 45 vs day 0” value was found to be 25%. Further, in data set [2] (day 68), the “decrease of serum GOT level, day 68 vs day 0” value was 17% and the “decrease of serum GPT level, day 68 vs day 0” value worked out at 19%.
